# According to patent publication US20220340629A1, “Myosin Derived Peptides and Related Compounds with Anticoagulant Activities” (THE SCRIPPS RESEARCH INSTITUTE, priority 0001, published 2022):
# Residues, ends and D or L forms follow the SMILES beside them.
# How the values were obtained:
# [1] = molecular target: skeletal muscle myosin-supported prothrombin activation by factors Xa and Va (Homo sapiens, UniProt P00742); experiment: Assay 1A: prothrombin activation by factor Xa/factor Va/myosin in purified system; type: biochemical, human factors Xa and Va; rabbit skeletal muscle myosin; details: FIG. 5; read-out: IC50, prothrombin activation by factor Xa/factor Va/myosin in purified system
# [2] = test system: skeletal muscle myosin-supported prothrombin activation by factors Xa and Va; experiment: as above; type: biochemical, human factors Xa and Va; rabbit skeletal muscle myosin
# [3] = test system: thrombin generation in human plasma; experiment: Thrombin generation assay in pooled normal human plasma (Examples 3 and 4); type: biochemical
# Procedure: Thrombin generation assay in pooled human plasma: The effect of synthetic peptides on thrombin generation in pooled normal human plasma (George King Bio-medical, Inc., Overland Park, KS) was tested as described (1,11). Briefly, normal human plasma (30 μl) was mixed with CTI, followed by the addition of peptide. Then, tissue factor (TF) (Innovin) (0.5[…] pM final) containing 30 mM Ca^++ in TBSA with fluorogenic thrombin substrate solution (I-1140) (Bachem Americas, Inc., Torrance, Calif.) were added to the plasma to initiate coagulation activation. The first derivative of the time course data for substrate hydrolysis yielded the thrombin generation curve, allowing measurement of thrombin generation during the initiation, propagation and termination phases of thrombin generation and the value for peak thrombin generated.
# [4] = test system: thrombin generation in human whole blood; experiment: Assay 4: thrombin generation in recalcified human whole blood; type: biochemical; details: recalcification
# Procedure: In addition to purified protein system and human plasma, assays using whole blood (Assay 4) were also performed to examine anti-coagulant activities of the peptides and derivative compounds. In these assays, freshly drawn anticoagulated human whole blood (80 μL aliquot) was incubated with peptide in DMSO or DMSO alone (control) for 5 min at 37° C. Then, fluorogenic thrombin substrate solution (Z-Gly-Gly-Arg-AMC) (I-1140) with 10 mmol/L CaCl2 (final) alone was added to the reaction mixture (total 110 μl) in 96 well plate to initiate coagulation. Thrombin generation was followed continuously for 25 min using SPECTRAmax GEMINI XS fluorometer (Molecular Devices, Sunnyvale, Calif.) with excitation and emission wavelengths set at 360 and 460 nm, respectively. The first derivative of fluorescence versus time was used to produce thrombin generation curves with the correction for substrate consumption and inner filter effect. IC50 were determined using a curve fit program in Prism7.0 (GraphPad Software, San Diego, Calif.).
# [5] = test system: thrombin generation in human platelet poor plasma with skeletal muscle myosin; experiment: Assay 2A: thrombin generation, recalcification of human platelet poor plasma + myosin; type: biochemical; details: human plasma, recalcification, myosin present; read-out: 2A (recalcification +myosin) IC50
# Procedure, shortened: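 Pooled normal human platelet-poor plasma (30%) preincubated 5 min at 37° C with 50 nM skeletal muscle myosin and peptide in DMSO. Coagulation triggered with 10 mmol/L CaCl2 plus fluorogenic Z-Gly-Gly-Arg-AMC; thrombin generation followed 25 min (ex 360/em 460 nm). IC50 = peptide concentration giving 50% inhibition of thrombin generation.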
# [6] = molecular target: phospholipid-supported prothrombin activation by factors Xa and Va (Homo sapiens, UniProt P00742); experiment: Assay 1C: phospholipid vesicle (PC/PS 80%/20%)-supported prothrombin activation; type: biochemical
# [7] = molecular target: T1, cardiac myosin-enhanced prothrombin activation by factors Xa and Va (Homo sapiens, UniProt P00742); experiment: Cardiac myosin-enhanced prothrombin activation; type: biochemical; details: peptide 0 to 12.5 μM, cardiac myosin 2 nM, FIG. 17
# T1 construct: factor Va (5 nM, final) and factor Xa (0.2 nM, final)
# Procedure: Varying concentrations of peptide HC796-835 (SEQ ID NO:21), ranging from 0 to 12.5 μM, were incubated with factor Va (5 nM, final) and factor Xa (0.2 nM, final) in Tris buffered saline containing bovine serum albumin (TBSA) plus 5 mM CaCl2 at room temperature in the presence of cardiac myosin (2 nM, final). Thrombin generation was initiated by the addition of prothrombin (0.75 μM) in TB SA containing 5 mM CaCl2. The reaction was quenched by adding EDTA (10 mM final) at 10 min. The rate of thrombin formation was quantified by measuring thrombin concentration as the rate of thrombin substrate hydrolysis. 100% was the value for controls in the absence of added peptides. Each value represents the mean [±SEM] of triplicate determinations.
# factor Xa = factor Xa (Homo sapiens, UniProt P00742); experiment: Factor Xa peptide binding assay (immobilized peptide); details: FIG. 2C; read-out: apparent Kd, factor Xa binding to immobilized peptide
# Procedure: Factor Xa Peptide Binding Assays: Peptide HC796-835 at 10 μg/mL in sodium bicarbonate (pH 9.3) was coated onto the wells of microtiter plates and then blocked with 5% fatty acid free BSA in TBS. After washing the plate with TBSA containing 5 mM CaCl2, various concentrations of factor Xa in binding buffer consisting of TBSA containing 5 mM CaCl2 were incubated in plate wells for 1 h at room temperature. Following 3 washings, bound factor Xa was detected by adding chromogenic substrate for factor Xa (S2222, Chromogenix, Franklin, Ohio). The absorbance values observed for triplicate noncoated wells lacking peptides served as nonspecific controls for binding and were subtracted from observed values for corresponding duplicate peptide-coated wells. Nonspecific binding of Factor Xa ranged from 5 to 20% of total observed binding in various experiments.
# Statistical analysis: Apparent Kd values using saturation binding curve fit were performed using Prism™ 7.0 software (Graph Pad Software Inc., San Diego, Calif.).
# phospholipid-supported prothrombin activation by factors Xa and Va, sequence (P00742 41-179 limits assumed): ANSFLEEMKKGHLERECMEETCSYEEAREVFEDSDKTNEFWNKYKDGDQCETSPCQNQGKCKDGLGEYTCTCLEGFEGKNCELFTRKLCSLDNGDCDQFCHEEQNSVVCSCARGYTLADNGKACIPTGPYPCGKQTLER
# phospholipid-supported prothrombin activation by factors Xa and Va, sequence (P00742 235-488 limits assumed): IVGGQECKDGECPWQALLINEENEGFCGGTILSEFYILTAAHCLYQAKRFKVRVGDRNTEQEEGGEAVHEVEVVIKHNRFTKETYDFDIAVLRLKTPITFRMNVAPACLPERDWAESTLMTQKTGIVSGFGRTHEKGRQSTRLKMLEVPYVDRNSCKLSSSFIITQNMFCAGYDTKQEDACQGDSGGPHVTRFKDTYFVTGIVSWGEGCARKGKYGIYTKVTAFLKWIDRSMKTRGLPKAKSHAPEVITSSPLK
# skeletal muscle myosin-supported prothrombin activation by factors Xa and Va (Homo sapiens, UniProt P00742), sequence (P00742 41-179): as the sequence (P00742 41-179 limits assumed) above
# skeletal muscle myosin-supported prothrombin activation by factors Xa and Va (Homo sapiens, UniProt P00742), sequence (P00742 235-488): as the sequence (P00742 235-488 limits assumed) above
# skeletal muscle myosin-supported prothrombin activation by factors Xa and Va (Homo sapiens, UniProt P00742), sequence (P12259 29-737 partner): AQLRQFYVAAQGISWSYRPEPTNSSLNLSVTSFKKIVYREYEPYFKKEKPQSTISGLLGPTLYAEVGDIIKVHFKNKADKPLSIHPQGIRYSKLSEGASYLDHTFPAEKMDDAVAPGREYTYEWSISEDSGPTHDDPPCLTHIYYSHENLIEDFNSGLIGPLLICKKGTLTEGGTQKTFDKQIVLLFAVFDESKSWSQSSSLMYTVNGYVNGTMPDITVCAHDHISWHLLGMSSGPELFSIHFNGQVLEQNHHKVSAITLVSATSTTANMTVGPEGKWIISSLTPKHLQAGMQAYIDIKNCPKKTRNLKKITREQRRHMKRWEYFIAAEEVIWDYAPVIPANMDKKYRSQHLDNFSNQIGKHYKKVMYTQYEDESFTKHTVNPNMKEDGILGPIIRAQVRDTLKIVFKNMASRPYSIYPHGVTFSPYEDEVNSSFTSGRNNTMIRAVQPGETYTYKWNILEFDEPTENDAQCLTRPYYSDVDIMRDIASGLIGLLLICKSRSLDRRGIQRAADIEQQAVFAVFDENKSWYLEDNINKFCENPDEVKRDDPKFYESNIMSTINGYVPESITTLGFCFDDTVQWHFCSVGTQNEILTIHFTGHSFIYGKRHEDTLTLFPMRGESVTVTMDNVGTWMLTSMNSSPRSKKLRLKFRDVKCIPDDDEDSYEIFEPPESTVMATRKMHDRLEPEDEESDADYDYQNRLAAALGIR
# skeletal muscle myosin-supported prothrombin activation by factors Xa and Va (Homo sapiens, UniProt P00742), sequence (P12259 1574-2224 partner): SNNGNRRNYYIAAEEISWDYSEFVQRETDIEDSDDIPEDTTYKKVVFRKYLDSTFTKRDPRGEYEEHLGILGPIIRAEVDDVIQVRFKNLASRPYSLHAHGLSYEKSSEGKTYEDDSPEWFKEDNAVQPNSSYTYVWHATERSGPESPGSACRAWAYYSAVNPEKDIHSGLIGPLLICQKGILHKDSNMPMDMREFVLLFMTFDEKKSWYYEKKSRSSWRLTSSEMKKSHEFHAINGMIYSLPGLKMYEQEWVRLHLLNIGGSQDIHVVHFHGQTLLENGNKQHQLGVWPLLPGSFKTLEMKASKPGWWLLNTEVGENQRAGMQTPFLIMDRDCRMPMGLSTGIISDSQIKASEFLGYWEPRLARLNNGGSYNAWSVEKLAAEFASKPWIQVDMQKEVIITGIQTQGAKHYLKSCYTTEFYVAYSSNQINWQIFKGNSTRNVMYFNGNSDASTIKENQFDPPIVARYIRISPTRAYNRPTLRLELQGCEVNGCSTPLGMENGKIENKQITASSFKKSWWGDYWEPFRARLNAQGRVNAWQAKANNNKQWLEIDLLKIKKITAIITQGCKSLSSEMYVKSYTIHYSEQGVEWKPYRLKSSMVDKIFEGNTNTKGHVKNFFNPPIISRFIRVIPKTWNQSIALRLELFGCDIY
# T1 sequence (P00742 41-179 limits assumed): as the sequence (P00742 41-179 limits assumed) above
# T1 sequence (P00742 235-488 limits assumed): as the sequence (P00742 235-488 limits assumed) above
smiles,measurement,setting,value
CC[C@H](C)[C@H](NC(=O)[C@H](C)NC(=O)[C@H](CCC(=O)O)NC(=O)[C@H](CCCNC(=N)N)NC(=O)[C@H](CCCNC(=N)N)NC(=O)[C@H](CCC(=O)O)NC(=O)[C@@H](NC(=O)[C@H](CCSC)NC(=O)[C@H](CCCNC(=N)N)NC(=O)[C@H](CCC(N)=O)NC(=O)[C@H](Cc1ccc(O)cc1)NC(=O)[C@H](CCC(=O)O)NC(=O)[C@@H](NC(=O)[C@H](CCCNC(=N)N)NC(=O)[C@H](C)NC(=O)[C@H](CC(C)C)NC(=O)[C@H](Cc1ccccc1)NC(=O)CNC(=O)[C@H](CCCNC(=N)N)NC(=O)[C@H](CS)NC(=O)[C@H](CCCNC(=N)N)NC(=O)[C@H](C)N)C(C)C)C(C)C)C(=O)N[C@@H](Cc1ccccc1)C(=O)N[C@@H](CS)C(=O)N[C@H](C(=O)N[C@@H](CCC(N)=O)C(=O)N[C@@H](Cc1ccc(O)cc1)C(=O)N[C@@H](CC(N)=O)C(=O)N[C@H](C(=O)N[C@@H](CCCNC(=N)N)C(=O)N[C@@H](CO)C(=O)N[C@@H](Cc1ccccc1)C(=O)N[C@@H](CCSC)C(=O)N[C@@H](CC(N)=O)C(=O)N[C@H](C(=O)N[C@@H](CCCCN)C(=O)N[C@@H](Cc1c[nH]cn1)C(=O)N[C@@H](Cc1c[nH]c2ccccc12)C(=O)N1CCC[C@H]1C(=O)N[C@@H](Cc1c[nH]c2ccccc12)C(N)=O)C(C)C)[C@@H](C)CC)[C@@H](C)CC [HC796-835] (H-ARCRGFLARVEYQRMVERREAIFCIQYNIRSFMNVKHWPW-NH2),IC50,[1],1300 nM
same,IC50,"[2]; dose-dependency assays, FIG. 2A, myosin 2 nM, read-out: IC50, inhibition of myosin-supported prothrombin activation",1200 nM
same,inhibition of myosin-supported prothrombin activation at 5 μM,"[2]; peptide 5 μM, FIG. 1A","inhibitory, to varying degrees"
same,inhibition of myosin-supported prothrombin activation at 100 μM,"[2]; peptide 100 μM, FIG. 1A",inhibited
same,IC50,"[3]; FIG. 3B, peptide 0-25 μM, read-out: IC50, inhibition of thrombin generation in plasma",~5500 nM
same,inhibition of thrombin generation in human plasma,"[3]; screened at 25 μM, FIG. 3A",significantly inhibited
same,4 (recalcification) IC50,[4],No activity
same,IC50,[5],3800 nM
same,inhibitory effects on phospholipid-supported prothrombin activation,[6]; compared with effects on myosin-supported prothrombin activation,not apparent
same,1C (+phospholipid),"[6]; purified system, phospholipid vesicles",No activity
same,inhibition of cardiac myosin-enhanced prothrombin activation,[7],inhibition
same,Kd,factor Xa,1400 nM
